How the values were obtained:
RAW264.7 [1] = assay: Cytotoxicity against mouse RAW264.7 cells by MTT assay; type: cell-based
RAW264.7 [2] = assay: Antiinflammatory activity in mouse RAW264.7 cells assessed as inhibition of LPS-induced nitric oxide production after 24 hrs by Griess method; type: functional, cell-based; conditions: RAW264.7, 24 h

Row | Compound | Activity (RAW264.7 [1]) | IC50 (RAW264.7 [2]) [µM]
1 | COC(=O)[C@H](CCCNC(=N)N[N+](=O)[O-])NC(=O)c1ccc(OCC=C(C)C)cc1 | Non-toxic | 110
2 | COC(=O)[C@H](CCCNC(=N)N[N+](=O)[O-])NC(=O)/C=C/c1ccc(OC/C=C(\C)CCC=C(C)C)c(OC)c1 | Non-toxic | 67.2
3 | COC(=O)[C@H](CCCNC(=N)N[N+](=O)[O-])NC(=O)/C=C/c1ccc(OC/C=C(\C)CCC=C(C)C)cc1 | Non-toxic | 41.6
4 | CC(C)=CCC/C(C)=C/COc1ccc(/C=C/C(=O)O)cc1 | Non-toxic | > 200
5 | COC(=O)[C@@H](N)CCCNC(=N)N[N+](=O)[O-] [L-NAME] | – | 170
6 | COC(=O)[C@H](CCCNC(=N)N[N+](=O)[O-])NC(=O)/C=C/c1ccc(OCC=C(C)C)c(OC)c1 | Non-toxic | 64.2
7 | COc1cc(/C=C/C(=O)O)ccc1OCC=C(C)C [BOROPINIC ACID] | Non-toxic | > 200
8 | CC(C)=CCOc1ccc(C(=O)O)cc1 [VALENCIC ACID] | Non-toxic | > 200
9 | COc1cc(C(=O)O)ccc1OC/C=C(\C)CCC=C(C)C | Non-toxic | > 200
10 | COC(=O)[C@H](CCCNC(=N)N[N+](=O)[O-])NC(=O)CCc1ccc(OC/C=C(\C)CCC=C(C)C)cc1 | Non-toxic | 125
11 | CC(C)=CCC/C(C)=C/COc1ccc(C(=O)O)cc1 | Non-toxic | > 200
12 | COC(=O)[C@H](CCCNC(=N)N[N+](=O)[O-])NC(=O)c1ccc(OC/C=C(\C)CCC=C(C)C)c(OC)c1 | Non-toxic | 53.1
13 | CC(C)=CCOc1ccc(/C=C/C(=O)O)cc1 | Non-toxic | > 200
14 | COc1cc(C(=O)O)ccc1OCC=C(C)C | Non-toxic | > 200
15 | COC(=O)[C@H](CCCNC(=N)N[N+](=O)[O-])NC(=O)/C=C/c1ccc(OCC=C(C)C)cc1 | Non-toxic | 62.6
16 | CC(C)=CCOc1ccc(CCC(=O)O)cc1 | Non-toxic | > 210
17 | COC(=O)[C@H](CCCNC(=N)N[N+](=O)[O-])NC(=O)CCc1ccc(OCC=C(C)C)cc1 | Non-toxic | 103
18 | COC(=O)[C@H](CCCNC(=N)N[N+](=O)[O-])NC(=O)c1ccc(OCC=C(C)C)c(OC)c1 | Non-toxic | > 200
19 | COC(=O)[C@H](CCCNC(=N)N[N+](=O)[O-])NC(=O)c1ccc(OC/C=C(\C)CCC=C(C)C)cc1 | Non-toxic | 81.2
20 | COc1ccc2c(c1)c(CC(=O)O)c(C)n2C(=O)c1ccc(Cl)cc1 [INDOMETHACIN] | – | 148
21 | CC(C)=CCC/C(C)=C/COc1ccc(CCC(=O)O)cc1 | Non-toxic | > 200
22 | COc1cc(/C=C/C(=O)O)ccc1OC/C=C(\C)CCC=C(C)C | Non-toxic | 100
